Data published in patent US12692254B2, “Benzimidazole inhibitors of PAD enzymes” (BRISTOL-MYERS SQUIBB COMPANY, priority 2018, dated 2026).

The compounds below were run against human PAD4 (hPAD4) (Homo sapiens, UniProt Q9UM07) (assay: RFMS human PAD4 functional assay (rapid-fire mass spectrum)). Conditions: 5 nM hPAD4 enzyme, 250 μM BAEE, 50 μM Calcium; 30 min preincubation, 90 min reaction at 37° C.
Format: biochemical
Summary of the method: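 PAD4 (10 nM) preincubated 30 min with compound (top final 50 μM), then BAEE substrate added in pH 7.5 HEPES buffer with DTT, 50 μM calcium, TPEN; 90 min at 37° C. After TCA quench, citrulline derivatized with phenyl glyoxal (4 mM final, 30 min, 37° C) and quantified by RapidFire MS against internal standard.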

Sequence of human PAD4 (hPAD4) (Q9UM07 whole entry): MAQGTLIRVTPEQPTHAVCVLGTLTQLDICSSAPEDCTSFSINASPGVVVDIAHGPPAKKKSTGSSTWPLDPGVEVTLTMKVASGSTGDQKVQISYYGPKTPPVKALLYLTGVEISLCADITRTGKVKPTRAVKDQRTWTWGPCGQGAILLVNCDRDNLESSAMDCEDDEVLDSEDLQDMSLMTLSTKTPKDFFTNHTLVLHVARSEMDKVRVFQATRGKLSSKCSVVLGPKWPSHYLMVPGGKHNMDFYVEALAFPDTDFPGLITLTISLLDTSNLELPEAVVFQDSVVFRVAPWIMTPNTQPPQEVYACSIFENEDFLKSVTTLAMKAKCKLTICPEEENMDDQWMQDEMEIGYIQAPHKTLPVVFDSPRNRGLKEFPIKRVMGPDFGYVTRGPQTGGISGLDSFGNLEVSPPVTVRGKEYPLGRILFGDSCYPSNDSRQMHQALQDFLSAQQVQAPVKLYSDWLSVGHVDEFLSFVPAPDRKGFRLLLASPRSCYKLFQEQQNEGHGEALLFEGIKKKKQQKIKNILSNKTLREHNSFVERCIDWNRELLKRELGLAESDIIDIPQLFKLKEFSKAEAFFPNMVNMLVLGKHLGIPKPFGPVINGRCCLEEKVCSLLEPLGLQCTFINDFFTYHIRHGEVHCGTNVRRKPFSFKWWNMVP

Going from COc1cc(C(=O)N2CC3CCC2[C@@H]3N)cc2nc(-c3cc4cccnc4n3CC3CC3)n([C@H]3C[C@@H](NS(C)(=O)=O)C3)c12 (stereo partly drawn) [Example 297, N-[(1s,3s)-3-{5-[(1R,4R,7R)-7-amino-2-azabicyclo[2.2.1]heptane-2-carbonyl]-2-[1-(cyclopropylmethyl)-1H-pyrrolo[2,3-b]pyridin-2-yl]-7-methoxy-1H-1,3-benzodiazol-1-yl}cyclobutyl]methanesulfonamide] to COc1cc(C(=O)N2C[C@H]3CC[C@@H]2[C@@H]3N)cc2nc(-c3cc4cccnc4n3CC3CC3)n(C3CN(C(=O)c4ccnc(N)n4)C3)c12 [Example 101, (1R,4R,7R)-2-{1-[1-(2-aminopyrimidine-4-carbonyl)azetidin-3-yl]-2-[1-(cyclopropylmethyl)-1H-pyrrolo[2,3-b]pyridin-2-yl]-7-methoxy-1H-1,3-benzodiazole-5-carbonyl}-2-azabicyclo[2.2.1]heptan-7-amine], the IC50 falls from 2.1 µM to 0.125 µM (17-fold).

Compared with COc1cc(C(=O)N2CC3CCC2[C@@H]3N)cc2nc(-c3cc4cccnc4n3CC3CC3)n(Cc3nc[nH]n3)c12 (stereo partly drawn) [Example 509, (7R)-2-{2-[1-(cyclopropylmethyl)-1H-pyrrolo[2,3-b]pyridin-2-yl]-7-methoxy-1-[(1H-l,2,4-triazol-3-yl)methyl]-1H-1,3-benzodiazole-5-carbonyl}-2-azabicyclo[2.2.1]heptan-7-amine], COc1cc(C(=O)N2CC3CCC2[C@@H]3N)cc2nc(-c3cc4cccnc4n3CC3CC3)n(Cc3ccn(C)n3)c12 (stereo partly drawn) [Example 499, (7R)-2-{2-[1-(cyclopropylmethyl)-1H-pyrrolo[2,3-b]pyridin-2-yl]-7-methoxy-1-[(1-methyl-1H-pyrazol-3-yl)methyl]-1H-1,3-benzodiazole-5-carbonyl}-2-azabicyclo[2.2.1]heptan-7-amine] is 2.4-fold lower in IC50: 0.3 µM for the first, 0.125 µM for the second. The second is the more potent here.

Going from COc1cc(C(=O)N2C[C@H]3CC[C@@H]2[C@@H]3N)cc2nc(-c3cc4cccnc4n3CC3CC3)n(CC3CN(C(=O)c4ccnc(N)n4)C3)c12 [Example 125, (1R,4R,7R)-2-(1-{[1-(2-aminopyrimidine-4-carbonyl)azetidin-3-yl]methyl}-2-[1-(cyclopropylmethyl)-1H-pyrrolo[2,3-b]pyridin-2-yl]-7-methoxy-1H-1,3-benzodiazole-5-carbonyl)-2-azabicyclo[2.2.1]heptan-7-amine] to COc1cc(C(=O)N2C[C@H]3CC[C@@H]2[C@@H]3N)cc2nc(-c3cc4cccnc4n3CC3CC3)n(CC3CN(c4ccnc(C#N)n4)C3)c12 [Example 5, 4-[3-({5-[(1R,4R,7R)-7-amino-2-azabicyclo[2.2.1]heptane-2-carbonyl]-2-[1-(cyclopropylmethyl)-1H-pyrrolo[2,3-b]pyridin-2-yl]-7-methoxy-1H-1,3-benzodiazol-1-yl}methyl)azetidin-1-yl]pyrimidine-2-carbonitrile], the IC50 falls from 0.102 µM to 0.051 µM (2-fold). The second is the more potent here.

COc1cc(C(=O)N2CC3CCC2[C@@H]3N)cc2nc(-c3cc4ccccc4n3CC3CC3)n(CC3CCS(=O)(=O)C3)c12 (stereo partly drawn) [Example 264, ((7R)-7-amino-2-azabicyclo[2.2.1]heptan-2-yl)(2-(1-(cyclopropylmethyl)-1H-indol-2-yl)-1-((1,1-dioxidotetrahydrothiophen-3-yl)methyl)-7-methoxy-1H-benzo[d]imidazol-5-yl)methanone] and COc1cc(C(=O)N2CC3CCC2[C@@H]3N)cc2nc(-c3cc4ccccc4n3CC3CC3)n(CC3CC(=O)N(C)C3)c12 (mixture of isomers) [Example 262, 4-({5-[(1R,4R,7R)-7-amino-2-azabicyclo[2.2.1]heptane-2-carbonyl]-2-[1-(cyclopropylmethy!)-1H-indol-2-yl]-7-methoxy-1H-1,3-benzodiazol-1-yl}methyl)-1-methylpyrrolidin-2-one] are within 1.5-fold of each other in IC50: 0.057 µM for the first, 0.055 µM for the second.

First: N#Cc1ccc(C(=O)N2CC(Cn3c(-c4cc5cccnc5n4CC4CC4)nc4cc(C(=O)N5CC6CCC5[C@@H]6N)ccc43)C2)cc1 (stereo partly drawn) [Example 467, 4-[3-({5-[(7R)-7-amino-2-azabicyclo[2.2.1]heptane-2-carbonyl]-2-[1-(cyclopropylmethyl)-1H-pyrrolo[2,3-b]pyridin-2-yl]-1H-1,3-benzodiazol-1-yl}methyl)azetidine-1-carbonyl]benzonitrile]
Second: COc1cc(C(=O)N2C[C@H]3CC[C@@H]2[C@@H]3N)cc2nc(-c3cc4cccnc4n3CC3CC3)n(CC3CN(C(=O)c4ccccc4)C3)c12 [Example 88, (1R,4R,7R)-2-{1-[(1-benzoylazetidin-3-yl)methyl]-2-[1-(cyclopropylmethyl)-1H-pyrrolo[2,3-b]pyridin-2-yl]-7-methoxy-1H-1,3-benzodiazole-5-carbonyl}-2-azabicyclo[2.2.1]heptan-7-amine]
The IC50 of the first is 4.3-fold higher: 0.091 µM for the first, 0.021 µM for the second. The second is the more potent here.

Compared with CCc1ccccc1-c1nc2cc(C(=O)N3C[C@H]4CC[C@@H]3[C@@H]4N)cc(OC)c2n1CC1CN(c2ccnc(C#N)n2)C1 [Example 319, 4-[3-({5-[(1R,4R,7R)-7-amino-2-azabicyclo[2.2.1]heptane-2-carbonyl]-2-(2-ethylphenyl)-7-methoxy-1H-1,3-benzodiazol-1-yl}methyl)azetidin-1-yl]pyrimidine-2-carbonitrile], COc1cc(C(=O)N2C[C@H]3CC[C@@H]2[C@@H]3N)cc2nc(-c3cccn3CC3CC3)n(CC3CN(c4ccnc(C#N)n4)C3)c12 [Example 311, 4-[3-({5-[(1R,4R,7R)-7-amino-2-azabicyclo[2.2.1]heptane-2-carbonyl]-2-[1-(cyclopropylmethyl)-1H-pyrrol-2-yl]-7-methoxy-1H-1,3-benzodiazol-1-yl}methyl)azetidin-1-yl]pyrimidine-2-carbonitrile] is 9.7-fold lower in IC50: 1.3 µM for the first, 0.134 µM for the second. The second is the more potent here.

COc1cc(C(=O)N2CC3CCC2[C@@H]3N)cc2nc(-c3cc4cccnc4n3CC3CC3)n(Cc3cnn(-c4ncccn4)c3)c12 (stereo partly drawn) [Example 398, (7R)-2-{2-[1-(cyclopropylmethyl)-1H-pyrrolo[2,3-b]pyridin-2-yl]-7-methoxy-1-{[1-(pyrimidin-2-yl)-1H-pyrazol-4-yl]methyl}-1H-1,3-benzodiazole-5-carbonyl}-2-azabicyclo[2.2.1]heptan-7-amine] and COc1cc(C(=O)N2CC3CCC2[C@@H]3N)cc2nc(-c3cc4cccnc4n3CC3CC3)n(Cc3cnn(-c4cncnc4)c3)c12 (stereo partly drawn) [Example 408, (7R)-2-{2-[1-(cyclopropylmethyl)-1H-pyrrolo[2,3-b]pyridin-2-yl]-7-methoxy-1-{[1-(pyrimidin-5-yl)-1H-pyrazol-4-yl]methyl}-1H-1,3-benzodiazole-5-carbonyl}-2-azabicyclo[2.2.1]heptan-7-amine] are within 1.5-fold of each other in IC50: 0.054 µM for the first, 0.074 µM for the second.

Compared with COc1cc(C(=O)N2C[C@H](N)C[C@@H](F)C2)cc2nc(-c3cc4cccnc4n3CC3CC3)n(Cc3cn(C)nc3C)c12 [Example 507, (3R,5R)-1-{2-[1-(cyclopropylmethyl)-1H-pyrrolo[2,3-b]pyridin-2-yl]-1-[(1,3-dimethyl-1H-pyrazol-4-yl)methyl]-7-methoxy-1H-1,3-benzodiazole-5-carbonyl}-5-fluoropiperidin-3-amine], COc1cc(C(=O)N2C[C@H]3CC[C@@H]2[C@@H]3N)cc2nc(-c3cc4cccnc4n3CC3CC3)n(CC3CN(c4cncnc4)C3)c12 [Example 27, (1R,4R,7R)-2-{2-[1-(cyclopropylmethyl)-1H-pyrrolo[2,3-b]pyridin-2-yl]-7-methoxy-1-{[1-(pyrimidin-5-yl)azetidin-3-yl]methyl}-1H-1,3-benzodiazole-5-carbonyl}-2-azabicyclo[2.2.1]heptan-7-amine] is 3.6-fold lower in IC50: 0.256 µM for the first, 0.072 µM for the second. The second is the more potent here.

Compared with COc1cc(C(=O)N2C[C@H]3CC[C@@H]2[C@@H]3N)cc2nc(-c3cc4ccccc4n3CC3CC3)n(Cc3ccc(N)nc3)c12 [Example 244, (1R,4R,7R)-2-{1-[(6-aminopyridin-3-yl)methyl]-2-[1-(cyclopropylmethyl)-1H-indol-2-yl]-7-methoxy-1H-1,3-benzodiazole-5-carbonyl}-2-azabicyclo[2.2.1]heptan-7-amine], COc1cc(C(=O)N2CC3CCC2[C@@H]3N)cc2nc(-c3cc4ccc(Br)cc4n3CC3CC3)n(Cc3cnn(C)c3)c12 (stereo partly drawn) [Example 522, (7R)-2-{2-[6-bromo-1-(cyclopropylmethyl)-1H-indol-2-yl]-7-methoxy-1-[(1-methyl-1H-pyrazol-4-yl)methyl]-1H-1,3-benzodiazole-5-carbonyl}-2-azabicyclo[2.2.1]heptan-7-amine] is 2.1-fold higher in IC50: 0.011 µM for the first, 0.023 µM for the second. The first is the more potent here.

COc1cc(C(=O)N2C[C@H](N)C[C@@H](F)C2)cc2nc(-c3cc4ccccc4n3CC3CC3)n(CC3(F)CN(C(=O)c4ccccc4)C3)c12 [Example 425, (3R,5R)-1-{1-[(1-benzoyl-3-fluoroazetidin-3-yl)methyl]-2-[1-(cyclopropylmethyl)-1H-indol-2-yl]-7-methoxy-1H-1,3-benzodiazole-5-carbonyl}-5-fluoropiperidin-3-amine] and COc1cc(C(=O)N2CC3CCC2[C@@H]3N)cc2nc(-c3cc4ccccc4n3CC3CC3)n(CC3CN(C(=O)c4ccc(C#N)cn4)C3)c12 (stereo partly drawn) [Example 435, 6-[3-({5-[(7R)-7-amino-2-azabicyclo[2.2.1]heptane-2-carobnyl]-2-[1-(cyclopropylmethyl)-1H-indol-2-yl]-7-methoxy-1H-1,3-benzodiazol-1-yl}methyl)azetidine-1-carobnyl]pyridine-3-carbonitrile] are within 1.5-fold of each other in IC50: 0.027 µM for the first, 0.034 µM for the second.

First: COc1cc(C(=O)N2CC3CCC2[C@@H]3N)cc2nc(-c3cc4ccccc4n3C)n(CC3CN(C(=O)c4ccc(C#N)cc4)C3)c12 (stereo partly drawn) [Example 178, 4-[3-({5-[(7R)-7-amino-2-azabicyclo[2.2.1]heptane-2-carbonyl]-7-methoxy-2-(1-methyl-1H-indol-2-yl)-1H-1,3-benzodiazol-1-yl}methyl)azetidine-1-carbonyl]benzonitrile]
Second: COc1cc(C(=O)N2C[C@H]3CC[C@@H]2[C@@H]3N)cc2nc(-c3cc4cccnc4n3CC3CC3)n(CC3CN(c4cccc5c4CNC5=O)C3)c12 [Example 55, 4-[3-({5-[(1R,4R,7R)-7-amino-2-azabicyclo[2.2.1]heptane-2-carbonyl]-2-[1-(cyclopropylmethyl)-1H-pyrrolo[2,3-b]pyridin-2-yl]-7-methoxy-1H-1,3-benzodiazol-1-yl}methyl)azetidin-1-yl]-2,3-dihydro-1H-isoindol-1-one]
The IC50 of the first is 1.9-fold lower: 0.086 µM for the first, 0.163 µM for the second.
